≈ marks a conversion by molar mass, not a printed value.
Each molecule was assayed on MCF7 (assay: Cytotoxicity against human MCF7 cells by MTT assay).
Format: functional, cell-based

In order of rising IC50:
1. CCCCCCCCCC[C@@H](O)[C@@H]1CC[C@@H]([C@@H]2CC[C@@H]([C@H](O)CCCCCCCCCC(O)CC3=CC(C)OC3=O)O2)O1 (stereo partly drawn) [BULLATACIN]  0.043 µg/mL (≈ 0.0706 µM)
2. CCCCCCCCCCCC(O)CCC[C@H](O)[C@H]1CC[C@H]([C@H]2CC[C@H]([C@H](O)CCCCCCCC3=C[C@H](C)OC3=O)O2)O1 (relative stereo)  0.052 µg/mL (≈ 0.0835 µM)
3. CCCCCCCCCC[C@@H](O)[C@H]1CC[C@H]([C@H]2CC[C@H]([C@H](O)CCCCCCCCC[C@H](O)CCC3=C[C@H](C)OC3=O)O2)O1 [UVARIGRANDIN A]  0.096 µg/mL (≈ 0.154 µM)
4. CCCCCCCCCC[C@H](O)[C@@H]1CC[C@@H]([C@H](O)CC[C@@H](O)[C@@H]2CC[C@@H](CCCCCCCCCC3=C[C@@H](C)OC3=O)O2)O1 [Squamostatin-D]  0.11 µg/mL (≈ 0.177 µM)
5. CCCCCC[C@@H](O)CCC[C@H](O)[C@@H]1CC[C@@H]([C@H](O)CC[C@@H](O)[C@@H]2CC[C@@H](CCCCCCCCCC3=C[C@@H](C)OC3=O)O2)O1 [Squamostatin-A]  0.15 µg/mL (≈ 0.235 µM)
6. O=c1[nH]cc(F)c(=O)[nH]1 [FLUOROURACIL]  0.22 µg/mL (≈ 1.69 µM)
7. CCCC[C@H](O)[C@H](O)[C@@H]1CC[C@@H]([C@H](O)CC[C@H](O)[C@@H]2CC[C@@H](CCCCCCCCCCCCCCC3=C[C@H](C)OC3=O)O2)O1 (relative stereo)  0.5 µg/mL (≈ 0.783 µM)
8. CCCCC[C@H](O)[C@@H]1CC[C@@H]([C@H](O)CC[C@H](O)[C@@H]2CC[C@@H](CCCCCCCCCCCC[C@@H](O)CC3=C[C@H](C)OC3=O)O2)O1 (relative stereo)  0.75 µg/mL (≈ 1.17 µM)

The molecules below were run on MKN-45 (assay: Cytotoxicity against human MKN45 cells by MTT assay).
Format: functional, cell-based

In order of falling IC50:
1. CCCCCC[C@@H](O)CCC[C@H](O)[C@@H]1CC[C@@H]([C@H](O)CC[C@@H](O)[C@@H]2CC[C@@H](CCCCCCCCCC3=C[C@@H](C)OC3=O)O2)O1 [Squamostatin-A]  0.93 µg/mL (≈ 1.46 µM)
2. CCCCCCCCCC[C@H](O)[C@@H]1CC[C@@H]([C@H](O)CC[C@@H](O)[C@@H]2CC[C@@H](CCCCCCCCCC3=C[C@@H](C)OC3=O)O2)O1 [Squamostatin-D]  0.87 µg/mL (≈ 1.4 µM)
3. CCCCC[C@H](O)[C@@H]1CC[C@@H]([C@H](O)CC[C@H](O)[C@@H]2CC[C@@H](CCCCCCCCCCCC[C@@H](O)CC3=C[C@H](C)OC3=O)O2)O1 (relative stereo)  0.59 µg/mL (≈ 0.923 µM)
4. O=c1[nH]cc(F)c(=O)[nH]1 [FLUOROURACIL]  0.36 µg/mL (≈ 2.77 µM)
5. CCCC[C@H](O)[C@H](O)[C@@H]1CC[C@@H]([C@H](O)CC[C@H](O)[C@@H]2CC[C@@H](CCCCCCCCCCCCCCC3=C[C@H](C)OC3=O)O2)O1 (relative stereo)  0.14 µg/mL (≈ 0.219 µM)
6. CCCCCCCCCC[C@@H](O)[C@H]1CC[C@H]([C@H]2CC[C@H]([C@H](O)CCCCCCCCC[C@H](O)CCC3=C[C@H](C)OC3=O)O2)O1 [UVARIGRANDIN A]  0.069 µg/mL (≈ 0.111 µM)
7. CCCCCCCCCC[C@@H](O)[C@@H]1CC[C@@H]([C@@H]2CC[C@@H]([C@H](O)CCCCCCCCCC(O)CC3=CC(C)OC3=O)O2)O1 (stereo partly drawn) [BULLATACIN]  0.053 µg/mL (≈ 0.087 µM)
8. CCCCCCCCCCCC(O)CCC[C@H](O)[C@H]1CC[C@H]([C@H]2CC[C@H]([C@H](O)CCCCCCCC3=C[C@H](C)OC3=O)O2)O1 (relative stereo)  0.042 µg/mL (≈ 0.0674 µM)

These molecules were tested on HeLa (assay: Cytotoxicity against human HeLa cells by MTT assay).
Format: functional, cell-based

In order of rising IC50:
1. CCCCCCCCCCCC(O)CCC[C@H](O)[C@H]1CC[C@H]([C@H]2CC[C@H]([C@H](O)CCCCCCCC3=C[C@H](C)OC3=O)O2)O1 (relative stereo)  0.025 µg/mL (≈ 0.0401 µM)
2. CCCCCCCCCC[C@@H](O)[C@@H]1CC[C@@H]([C@@H]2CC[C@@H]([C@H](O)CCCCCCCCCC(O)CC3=CC(C)OC3=O)O2)O1 (stereo partly drawn) [BULLATACIN]  0.034 µg/mL (≈ 0.0558 µM)
3. CCCCCCCCCC[C@@H](O)[C@H]1CC[C@H]([C@H]2CC[C@H]([C@H](O)CCCCCCCCC[C@H](O)CCC3=C[C@H](C)OC3=O)O2)O1 [UVARIGRANDIN A]  0.07 µg/mL (≈ 0.112 µM)
4. CCCCCCCCCC[C@H](O)[C@@H]1CC[C@@H]([C@H](O)CC[C@@H](O)[C@@H]2CC[C@@H](CCCCCCCCCC3=C[C@@H](C)OC3=O)O2)O1 [Squamostatin-D]  0.1 µg/mL (≈ 0.161 µM)
5. O=c1[nH]cc(F)c(=O)[nH]1 [FLUOROURACIL]  0.14 µg/mL (≈ 1.08 µM)
6. CCCCCC[C@@H](O)CCC[C@H](O)[C@@H]1CC[C@@H]([C@H](O)CC[C@@H](O)[C@@H]2CC[C@@H](CCCCCCCCCC3=C[C@@H](C)OC3=O)O2)O1 [Squamostatin-A]  0.45 µg/mL (≈ 0.704 µM)
7. CCCC[C@H](O)[C@H](O)[C@@H]1CC[C@@H]([C@H](O)CC[C@H](O)[C@@H]2CC[C@@H](CCCCCCCCCCCCCCC3=C[C@H](C)OC3=O)O2)O1 (relative stereo)  0.57 µg/mL (≈ 0.892 µM)
8. CCCCC[C@H](O)[C@@H]1CC[C@@H]([C@H](O)CC[C@H](O)[C@@H]2CC[C@@H](CCCCCCCCCCCC[C@@H](O)CC3=C[C@H](C)OC3=O)O2)O1 (relative stereo)  1.5 µg/mL (≈ 2.35 µM)

Each molecule was assayed on HepG2 (assay: Cytotoxicity against human HepG2 cells by MTT assay).
Format: functional, cell-based

In order of rising IC50:
1. O=c1[nH]cc(F)c(=O)[nH]1 [FLUOROURACIL]  0.0082 µg/mL (≈ 0.063 µM)
2. CCCCCCCCCCCC(O)CCC[C@H](O)[C@H]1CC[C@H]([C@H]2CC[C@H]([C@H](O)CCCCCCCC3=C[C@H](C)OC3=O)O2)O1 (relative stereo)  0.022 µg/mL (≈ 0.0353 µM)
3. CCCCCCCCCC[C@@H](O)[C@@H]1CC[C@@H]([C@@H]2CC[C@@H]([C@H](O)CCCCCCCCCC(O)CC3=CC(C)OC3=O)O2)O1 (stereo partly drawn) [BULLATACIN]  0.032 µg/mL (≈ 0.0526 µM)
4. CCCC[C@H](O)[C@H](O)[C@@H]1CC[C@@H]([C@H](O)CC[C@H](O)[C@@H]2CC[C@@H](CCCCCCCCCCCCCCC3=C[C@H](C)OC3=O)O2)O1 (relative stereo)  0.17 µg/mL (≈ 0.266 µM)
5. CCCCCCCCCC[C@H](O)[C@@H]1CC[C@@H]([C@H](O)CC[C@@H](O)[C@@H]2CC[C@@H](CCCCCCCCCC3=C[C@@H](C)OC3=O)O2)O1 [Squamostatin-D]  0.56 µg/mL (≈ 0.899 µM)
6. CCCCCCCCCC[C@@H](O)[C@H]1CC[C@H]([C@H]2CC[C@H]([C@H](O)CCCCCCCCC[C@H](O)CCC3=C[C@H](C)OC3=O)O2)O1 [UVARIGRANDIN A]  0.78 µg/mL (≈ 1.25 µM)
7. CCCCC[C@H](O)[C@@H]1CC[C@@H]([C@H](O)CC[C@H](O)[C@@H]2CC[C@@H](CCCCCCCCCCCC[C@@H](O)CC3=C[C@H](C)OC3=O)O2)O1 (relative stereo)  0.8 µg/mL (≈ 1.25 µM)
8. CCCCCC[C@@H](O)CCC[C@H](O)[C@@H]1CC[C@@H]([C@H](O)CC[C@@H](O)[C@@H]2CC[C@@H](CCCCCCCCCC3=C[C@@H](C)OC3=O)O2)O1 [Squamostatin-A]  0.83 µg/mL (≈ 1.3 µM)

Each molecule was assayed on A549 (assay: Cytotoxicity against human A549 cells by MTT assay).
Format: functional, cell-based

In order of falling IC50:
1. CCCCC[C@H](O)[C@@H]1CC[C@@H]([C@H](O)CC[C@H](O)[C@@H]2CC[C@@H](CCCCCCCCCCCC[C@@H](O)CC3=C[C@H](C)OC3=O)O2)O1 (relative stereo)  0.68 µg/mL (≈ 1.06 µM)
2. O=c1[nH]cc(F)c(=O)[nH]1 [FLUOROURACIL]  0.32 µg/mL (≈ 2.46 µM)
3. CCCC[C@H](O)[C@H](O)[C@@H]1CC[C@@H]([C@H](O)CC[C@H](O)[C@@H]2CC[C@@H](CCCCCCCCCCCCCCC3=C[C@H](C)OC3=O)O2)O1 (relative stereo)  0.31 µg/mL (≈ 0.485 µM)
4. CCCCCC[C@@H](O)CCC[C@H](O)[C@@H]1CC[C@@H]([C@H](O)CC[C@@H](O)[C@@H]2CC[C@@H](CCCCCCCCCC3=C[C@@H](C)OC3=O)O2)O1 [Squamostatin-A]  0.21 µg/mL (≈ 0.329 µM)
5. CCCCCCCCCC[C@@H](O)[C@H]1CC[C@H]([C@H]2CC[C@H]([C@H](O)CCCCCCCCC[C@H](O)CCC3=C[C@H](C)OC3=O)O2)O1 [UVARIGRANDIN A]  0.08 µg/mL (≈ 0.128 µM)
6. CCCCCCCCCC[C@H](O)[C@@H]1CC[C@@H]([C@H](O)CC[C@@H](O)[C@@H]2CC[C@@H](CCCCCCCCCC3=C[C@@H](C)OC3=O)O2)O1 [Squamostatin-D]  0.046 µg/mL (≈ 0.0738 µM)
7. CCCCCCCCCC[C@@H](O)[C@@H]1CC[C@@H]([C@@H]2CC[C@@H]([C@H](O)CCCCCCCCCC(O)CC3=CC(C)OC3=O)O2)O1 (stereo partly drawn) [BULLATACIN]  0.033 µg/mL (≈ 0.0542 µM)
8. CCCCCCCCCCCC(O)CCC[C@H](O)[C@H]1CC[C@H]([C@H]2CC[C@H]([C@H](O)CCCCCCCC3=C[C@H](C)OC3=O)O2)O1 (relative stereo)  0.012 µg/mL (≈ 0.0193 µM)

These molecules were tested on SMMC-7721 (assay: Cytotoxicity against human SMMC7721 cells by MTT assay).
Format: functional, cell-based

In order of falling IC50:
1. CCCCCC[C@@H](O)CCC[C@H](O)[C@@H]1CC[C@@H]([C@H](O)CC[C@@H](O)[C@@H]2CC[C@@H](CCCCCCCCCC3=C[C@@H](C)OC3=O)O2)O1 [Squamostatin-A]  0.49 µg/mL (≈ 0.767 µM)
2. CCCCC[C@H](O)[C@@H]1CC[C@@H]([C@H](O)CC[C@H](O)[C@@H]2CC[C@@H](CCCCCCCCCCCC[C@@H](O)CC3=C[C@H](C)OC3=O)O2)O1 (relative stereo)  0.39 µg/mL (≈ 0.61 µM)
3. CCCCCCCCCC[C@H](O)[C@@H]1CC[C@@H]([C@H](O)CC[C@@H](O)[C@@H]2CC[C@@H](CCCCCCCCCC3=C[C@@H](C)OC3=O)O2)O1 [Squamostatin-D]  0.25 µg/mL (≈ 0.401 µM)
4. CCCC[C@H](O)[C@H](O)[C@@H]1CC[C@@H]([C@H](O)CC[C@H](O)[C@@H]2CC[C@@H](CCCCCCCCCCCCCCC3=C[C@H](C)OC3=O)O2)O1 (relative stereo)  0.11 µg/mL (≈ 0.172 µM)
5. CCCCCCCCCCCC(O)CCC[C@H](O)[C@H]1CC[C@H]([C@H]2CC[C@H]([C@H](O)CCCCCCCC3=C[C@H](C)OC3=O)O2)O1 (relative stereo)  0.057 µg/mL (≈ 0.0915 µM)
6. O=c1[nH]cc(F)c(=O)[nH]1 [FLUOROURACIL]  0.023 µg/mL (≈ 0.177 µM)
7. CCCCCCCCCC[C@@H](O)[C@@H]1CC[C@@H]([C@@H]2CC[C@@H]([C@H](O)CCCCCCCCCC(O)CC3=CC(C)OC3=O)O2)O1 (stereo partly drawn) [BULLATACIN]  0.0048 µg/mL (≈ 0.00788 µM)
8. CCCCCCCCCC[C@@H](O)[C@H]1CC[C@H]([C@H]2CC[C@H]([C@H](O)CCCCCCCCC[C@H](O)CCC3=C[C@H](C)OC3=O)O2)O1 [UVARIGRANDIN A]  0.0029 µg/mL (≈ 0.00466 µM)
